Experimental data as given in paper PMC3997178 (Neuron, 2014).
pKi: −log10 of the molar value.

Columns and labels:
[1] = system: GluN2A containing NMDA receptors; conditions: ref Frizelle et al., 2006; cited from earlier work
NMDA receptors = conditions: ref Frizelle et al., 2006; Urwyler et al., 1996; cited from earlier work
[2] = system: GluN1/GluN2D NMDA receptors; assay: TEVC inhibition of currents, GluN1/GluN2D in Xenopus oocytes; type: cell-based, rat
[3] = molecular target: GluN1/GluN2A NMDA receptors (Rattus norvegicus, UniProt Q00959); type: cell-based
[4] = molecular target: GluK1 kainate receptors (Tyr506Cys Leu768Cys) (Rattus norvegicus, UniProt P22756, L798C/Y536C); assay: TEVC inhibition of L-glutamate induced currents, non-desensitizing GluK1 mutant; type: cell-based
[5] = molecular target: GluN1/GluN2A Tyr730Phe NMDA receptor (Rattus norvegicus, UniProt Q00959, Y730F); assay: TEVC mutational analysis, GluN2A Tyr730Phe; conditions: Tyr730Phe vs wild type
[6] = molecular target: GluN1/GluN2A Val734Ala NMDA receptor (Rattus norvegicus, UniProt Q00959, V734A); assay: TEVC mutational analysis, GluN2A Val734Ala; conditions: Val734Ala vs wild type
[7] = molecular target: GluN1/GluN2A Phe416Ala NMDA receptor (Rattus norvegicus, UniProt Q00959, F416A); assay: TEVC mutational analysis, GluN2A Phe416Ala; conditions: Phe416Ala vs wild type
[8] = molecular target: GluN1/GluN2A Val713Ala NMDA receptor (Rattus norvegicus, UniProt Q00959, V713A); assay: TEVC mutational analysis, GluN2A Val713Ala; conditions: Val713Ala vs wild type
[9] = molecular target: GluN1/GluN2A Tyr737Ala NMDA receptor (Rattus norvegicus, UniProt Q00959, Y737A); assay: TEVC mutational analysis, GluN2A Tyr737Ala; conditions: Tyr737Ala vs wild type
[10] = molecular target: GluN1/GluN2A Tyr730Met NMDA receptor (Rattus norvegicus, UniProt Q00959, Y730M); assay: TEVC mutational analysis, GluN2A Tyr730Met; conditions: Tyr730Met vs wild type
[11] = molecular target: GluN1/GluN2A Lys738Met NMDA receptor (Rattus norvegicus, UniProt Q00959, K738M); assay: TEVC mutational analysis, GluN2A Lys738Met; conditions: Lys738Met vs wild type
[12] = molecular target: GluN1/GluN2A NMDA receptors (Rattus norvegicus, UniProt P35439+Q00959); type: cell-based
[13] = molecular target: GluN1/GluN2A Tyr730Leu NMDA receptor (Rattus norvegicus, UniProt Q00959, Y730L); assay: TEVC mutational analysis, GluN2A Tyr730Leu; conditions: Tyr730Leu vs wild type
[14] = molecular target: GluA2 AMPA receptors (Leu483Tyr, flip) (Rattus norvegicus, UniProt P19491, L504Y); assay: TEVC inhibition of L-glutamate induced currents, non-desensitizing GluA2 mutant; type: cell-based
GluA2 Leu704Tyr = GluA2 Leu704Tyr (Rattus norvegicus, UniProt P19491, L504Y/L725Y); assay: D-AP5 sensitivity of GluA2 Leu704 to tyrosine mutant; type: cell-based; conditions: data not shown
non-NMDA receptors = assay: D-AP5 effect on non-NMDA receptors; type: cell-based; conditions: as high as 100 µM
GluK1 Met722Tyr = GluK1 Met722Tyr (Rattus norvegicus, UniProt P22756, M752Y); assay: D-AP5 sensitivity of GluK1 Met722 to tyrosine mutant; type: cell-based; conditions: data not shown
[15] = 100 µM compound in the presence of 30 µM glutamate

Chain of GluN1/GluN2A NMDA receptors (Rattus norvegicus, UniProt Q00959) (Q00959 20-1464 limits assumed, other chains not shown): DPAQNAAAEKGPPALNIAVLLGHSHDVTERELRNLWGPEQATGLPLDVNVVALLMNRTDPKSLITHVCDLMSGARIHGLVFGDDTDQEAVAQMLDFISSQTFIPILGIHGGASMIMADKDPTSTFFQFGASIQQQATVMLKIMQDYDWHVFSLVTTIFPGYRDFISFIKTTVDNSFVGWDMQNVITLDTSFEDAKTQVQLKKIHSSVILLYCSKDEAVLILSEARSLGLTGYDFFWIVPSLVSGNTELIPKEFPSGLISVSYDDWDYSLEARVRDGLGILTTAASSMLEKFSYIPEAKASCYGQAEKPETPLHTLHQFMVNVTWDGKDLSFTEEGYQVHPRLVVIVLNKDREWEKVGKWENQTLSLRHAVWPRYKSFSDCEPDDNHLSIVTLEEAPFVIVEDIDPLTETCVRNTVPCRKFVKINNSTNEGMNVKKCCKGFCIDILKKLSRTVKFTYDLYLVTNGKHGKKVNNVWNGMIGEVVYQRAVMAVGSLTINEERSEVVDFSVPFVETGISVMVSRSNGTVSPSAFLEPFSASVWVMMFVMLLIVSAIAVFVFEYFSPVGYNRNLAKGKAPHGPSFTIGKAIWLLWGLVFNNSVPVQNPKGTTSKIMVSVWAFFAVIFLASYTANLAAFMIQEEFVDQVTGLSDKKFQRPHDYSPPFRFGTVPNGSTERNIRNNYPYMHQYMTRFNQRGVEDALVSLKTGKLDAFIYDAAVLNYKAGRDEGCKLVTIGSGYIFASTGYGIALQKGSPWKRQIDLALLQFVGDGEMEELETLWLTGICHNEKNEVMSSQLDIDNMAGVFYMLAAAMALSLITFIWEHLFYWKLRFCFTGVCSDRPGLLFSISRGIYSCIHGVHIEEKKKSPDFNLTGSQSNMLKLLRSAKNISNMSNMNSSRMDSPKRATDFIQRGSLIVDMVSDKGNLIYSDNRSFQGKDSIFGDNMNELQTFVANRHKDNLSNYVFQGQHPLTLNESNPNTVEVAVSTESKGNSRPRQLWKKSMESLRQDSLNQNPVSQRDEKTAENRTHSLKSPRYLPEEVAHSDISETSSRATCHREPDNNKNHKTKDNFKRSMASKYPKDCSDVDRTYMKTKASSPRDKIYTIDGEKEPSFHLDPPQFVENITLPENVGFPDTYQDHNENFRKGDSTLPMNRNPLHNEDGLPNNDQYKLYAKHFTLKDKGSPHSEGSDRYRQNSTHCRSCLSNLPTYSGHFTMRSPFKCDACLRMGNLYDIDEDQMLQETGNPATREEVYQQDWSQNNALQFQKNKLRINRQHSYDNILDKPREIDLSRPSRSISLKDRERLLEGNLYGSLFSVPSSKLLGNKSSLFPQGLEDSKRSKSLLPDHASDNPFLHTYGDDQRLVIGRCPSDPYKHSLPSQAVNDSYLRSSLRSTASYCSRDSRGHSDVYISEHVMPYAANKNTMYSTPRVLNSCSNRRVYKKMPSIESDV
Chain of GluN1/GluN2A Val734Ala NMDA receptor (Q00959 20-1464 V734A limits assumed, other chains not shown): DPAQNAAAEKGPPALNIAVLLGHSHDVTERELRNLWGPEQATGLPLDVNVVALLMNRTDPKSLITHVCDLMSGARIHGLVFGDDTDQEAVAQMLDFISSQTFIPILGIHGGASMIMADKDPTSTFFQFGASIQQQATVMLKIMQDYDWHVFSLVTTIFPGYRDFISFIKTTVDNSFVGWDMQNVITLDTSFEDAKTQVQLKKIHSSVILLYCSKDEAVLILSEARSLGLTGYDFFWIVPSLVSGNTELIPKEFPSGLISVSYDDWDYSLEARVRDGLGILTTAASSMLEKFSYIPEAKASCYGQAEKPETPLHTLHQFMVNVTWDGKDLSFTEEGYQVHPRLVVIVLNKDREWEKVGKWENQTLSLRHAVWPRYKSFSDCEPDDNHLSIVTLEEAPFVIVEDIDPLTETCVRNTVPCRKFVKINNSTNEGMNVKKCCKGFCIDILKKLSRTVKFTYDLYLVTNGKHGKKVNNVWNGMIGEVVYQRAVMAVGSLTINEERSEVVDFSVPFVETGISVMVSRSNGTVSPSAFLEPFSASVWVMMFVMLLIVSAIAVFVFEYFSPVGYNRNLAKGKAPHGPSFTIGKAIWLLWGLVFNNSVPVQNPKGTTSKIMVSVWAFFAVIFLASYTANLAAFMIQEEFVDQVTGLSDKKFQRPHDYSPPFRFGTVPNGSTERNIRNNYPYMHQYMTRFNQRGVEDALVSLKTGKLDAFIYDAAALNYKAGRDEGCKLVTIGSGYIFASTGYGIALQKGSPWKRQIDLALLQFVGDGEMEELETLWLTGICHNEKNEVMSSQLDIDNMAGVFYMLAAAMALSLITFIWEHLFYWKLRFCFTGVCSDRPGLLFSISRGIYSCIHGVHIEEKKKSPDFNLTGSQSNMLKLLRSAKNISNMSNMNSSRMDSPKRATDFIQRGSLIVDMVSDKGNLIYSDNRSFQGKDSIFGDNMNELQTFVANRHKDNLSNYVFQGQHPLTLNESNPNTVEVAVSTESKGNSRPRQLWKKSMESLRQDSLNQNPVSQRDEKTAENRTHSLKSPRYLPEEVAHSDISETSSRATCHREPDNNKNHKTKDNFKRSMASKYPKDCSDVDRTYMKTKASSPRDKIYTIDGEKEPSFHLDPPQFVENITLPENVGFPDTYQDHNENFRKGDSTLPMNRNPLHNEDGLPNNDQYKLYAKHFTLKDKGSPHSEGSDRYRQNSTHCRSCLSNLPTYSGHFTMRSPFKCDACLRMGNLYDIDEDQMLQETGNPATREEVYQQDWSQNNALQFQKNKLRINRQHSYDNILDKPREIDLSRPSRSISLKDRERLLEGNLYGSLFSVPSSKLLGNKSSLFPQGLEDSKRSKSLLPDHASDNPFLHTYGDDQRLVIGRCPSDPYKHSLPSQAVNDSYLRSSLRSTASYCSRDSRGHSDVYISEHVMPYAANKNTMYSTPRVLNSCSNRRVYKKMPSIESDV
Chain of GluN1/GluN2A Lys738Met NMDA receptor (Q00959 20-1464 K738M limits assumed, other chains not shown): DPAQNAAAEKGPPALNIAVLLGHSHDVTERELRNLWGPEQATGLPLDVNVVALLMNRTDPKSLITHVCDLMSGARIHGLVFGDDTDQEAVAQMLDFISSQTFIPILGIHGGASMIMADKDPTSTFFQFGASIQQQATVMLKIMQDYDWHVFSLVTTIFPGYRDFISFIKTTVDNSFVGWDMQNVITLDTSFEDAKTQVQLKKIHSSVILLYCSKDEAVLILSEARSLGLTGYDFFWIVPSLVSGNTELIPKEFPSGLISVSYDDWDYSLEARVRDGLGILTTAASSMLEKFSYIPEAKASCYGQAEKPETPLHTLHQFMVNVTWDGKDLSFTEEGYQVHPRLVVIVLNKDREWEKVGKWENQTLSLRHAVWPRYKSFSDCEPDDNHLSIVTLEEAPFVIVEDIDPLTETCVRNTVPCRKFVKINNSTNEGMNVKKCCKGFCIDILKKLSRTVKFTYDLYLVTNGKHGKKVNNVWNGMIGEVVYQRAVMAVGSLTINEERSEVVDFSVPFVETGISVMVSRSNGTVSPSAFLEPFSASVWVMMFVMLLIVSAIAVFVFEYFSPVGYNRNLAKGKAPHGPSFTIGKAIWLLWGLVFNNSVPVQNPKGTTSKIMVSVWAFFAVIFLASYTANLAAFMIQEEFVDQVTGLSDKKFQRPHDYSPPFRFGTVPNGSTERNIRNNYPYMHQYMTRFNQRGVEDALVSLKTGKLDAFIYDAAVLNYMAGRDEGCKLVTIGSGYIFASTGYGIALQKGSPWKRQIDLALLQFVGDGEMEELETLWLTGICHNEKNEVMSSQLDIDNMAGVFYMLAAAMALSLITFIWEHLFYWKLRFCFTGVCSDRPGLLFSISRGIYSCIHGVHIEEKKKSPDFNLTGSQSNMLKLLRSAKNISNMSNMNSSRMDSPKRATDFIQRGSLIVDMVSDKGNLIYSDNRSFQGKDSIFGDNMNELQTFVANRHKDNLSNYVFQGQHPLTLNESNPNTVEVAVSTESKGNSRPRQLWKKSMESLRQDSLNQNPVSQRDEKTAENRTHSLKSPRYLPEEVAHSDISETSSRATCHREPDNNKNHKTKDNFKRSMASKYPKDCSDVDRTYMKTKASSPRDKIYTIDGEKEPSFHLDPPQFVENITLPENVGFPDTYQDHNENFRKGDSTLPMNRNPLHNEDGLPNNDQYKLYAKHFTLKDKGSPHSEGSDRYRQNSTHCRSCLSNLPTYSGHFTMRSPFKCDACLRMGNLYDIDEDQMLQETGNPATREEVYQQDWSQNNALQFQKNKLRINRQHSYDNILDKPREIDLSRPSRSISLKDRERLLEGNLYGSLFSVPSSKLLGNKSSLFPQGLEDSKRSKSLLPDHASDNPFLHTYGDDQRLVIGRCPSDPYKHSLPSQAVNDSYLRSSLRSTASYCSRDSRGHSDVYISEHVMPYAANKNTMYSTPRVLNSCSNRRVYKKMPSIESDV

Q: For `C[C@H](N[C@@H](c1cccc2[nH]c(=O)c(=O)[nH]c12)P(=O)(O)O)c1ccc(Br)cc1` [NVP-AAM077], which “specificity toward GluN2A containing over GluN2B containing NMDA receptors” value [1] is on record?
A: 5 fold

Q: And the potency (NMDA receptors)?
A: nanomolar potency

Q: With `O=C(O)C1NCCN(C(=O)c2ccc3c(ccc4ccccc43)c2)C1C(=O)O` (single isomer, unassigned; (+)) [(+)-PPDA, 1-(Phenanthrene-2-carbonyl)piperazine-2,3-dicarboxylic acid] as the molecule, how does the “fold higher potency toward GluN1/GluN2D than GluN1/GluN2A” value [2] read?
A: 5–6 fold

Q: And the “fold weaker potency than (−)-PPDA” value ([2]; dose-response inhibition)?
A: 6–7 fold

Q: And the “fold weaker potency than (−)-PPDA” value ([3]; dose-response inhibition, TEVC)?
A: 6–7 fold

Q: Which results are given for `O=C(O)C1NCCN(C(=O)c2ccc3c(ccc4ccccc43)c2)C1C(=O)O` (single isomer, unassigned; (-)) [(−)-PPDA, 1-(Phenanthrene-2-carbonyl)piperazine-2,3-dicarboxylic acid]?
A: pKi [4]: 5.93; inhibition of current [4, 15]: completely inhibited; change in sensitivity [5]: increase in (−)-PPDA sensitivity; effect of mutation on potency [6]: decreases the (−)-PPDA sensitivity; effect of mutation on sensitivity [7]: minor effects; effect of mutation on sensitivity [8]: minor effects; effect of mutation on potency [9]: decreases the (−)-PPDA sensitivity; change in sensitivity [10]: little or no change; effect of mutation on potency [11]: increases the (−)-PPDA sensitivity; inhibition of current ([3]; 100 µM compound in the presence of agonists (100 µM glycine/30 µM glutamate)): completely inhibited; pKi [12]: 6.09; change in sensitivity [13]: little or no change; pKi [14]: 5.11; inhibition of current [14, 15]: completely inhibited

Q: Which change in sensitivity [5] does the source give for `N[C@H](CCCP(=O)(O)O)C(=O)O` [D-AP5, D-(−)-2-Amino-5-phosphonopentanoic acid] here?
A: five-fold decrease in sensitivity

Q: What about the “effect of mutation on potency” value [6] of the same molecule?
A: only minor effects

Q: What about the “sensitivity to D-AP5” value (GluA2 Leu704Tyr) of the same molecule?
A: does not confer sensitivity

Q: And the “effect of mutation on sensitivity” value [7]?
A: minor effects

Q: And the “effect of mutation on sensitivity” value [8]?
A: minor effects

Q: And the “effect of mutation on potency” value [9]?
A: only minor effects

Q: And the inhibitory effect (non-NMDA receptors)?
A: no inhibitory effect

Q: What about the “sensitivity to D-AP5” value (GluK1 Met722Tyr) of the same molecule?
A: does not confer sensitivity

Q: And the “fold increase in Ki” value [10]?
A: ~ 80 fold

Q: What about the “effect of mutation on potency” value [11] of the same molecule?
A: only minor effects

Q: And the “fold increase in Ki” value [13]?
A: ~ 20 fold

Q: For `N[C@@H](Cc1cc(-c2ccc(Cl)cc2Cl)cc(CP(=O)(O)O)c1O)C(=O)O` [SDZ220-040], which potency (NMDA receptors) is on record?
A: nanomolar potency
